Results on six molecules are retold here after ChEMBL document CHEMBL3400054, “Polybrominated diphenyl ethers with potent and broad spectrum antimicrobial activity from the marine sponge Dysidea” (2015).

SMILES strings stand for the structures. ≈ marks a conversion by molar mass, not a printed value.

Holding throughout (format): functional
In experiment [1] the test system is Klebsiella pneumoniae. Nature of the experiment: Antimicrobial activity against Klebsiella pneumoniae ATCC 13883 incubated at 37 degC for 24 hrs by broth macrodilution method. Conditions: ATCC 13883, 24 h.
Experiment [2] relates to Klebsiella pneumoniae. Nature of the experiment: Antimicrobial activity against Klebsiella pneumoniae.
Experiment [3] relates to Staphylococcus aureus. Kind of experiment: Antimicrobial activity against methicillin-sensitive Staphylococcus aureus incubated at 37 degC for 24 hrs by broth macrodilution method.
The next experiment concerns Listeria monocytogenes. Nature of the experiment: Antimicrobial activity against Listeria monocytogenes incubated at 37 degC for 24 hrs by broth macrodilution method.
In a further experiment the test system is Bacillus cereus. Kind of experiment: Antimicrobial activity against Bacillus cereus incubated at 37 degC for 24 hrs by broth macrodilution method.
The next experiment relates to Clostridioides difficile. Nature of the experiment: Antimicrobial activity against Clostridium difficile ATCC 9689 incubated at 37 degC for 24 hrs by broth macrodilution method. Particulars: ATCC 9689, 24 h.
For experiment [4], the system named is Staphylococcus aureus. Nature of the experiment: Antimicrobial activity against methicillin-resistant Staphylococcus aureus incubated at 37 degC for 24 hrs by broth macrodilution method.
Another experiment has as its system Salmonella sp. Kind of experiment: Antimicrobial activity against Salmonella sp. incubated at 37 degC for 24 hrs by broth macrodilution method.
The next experiment concerns Escherichia coli. Nature of the experiment: Antimicrobial activity against Escherichia coli O157:H7 incubated at 37 degC for 24 hrs by broth macrodilution method. Conditions: O157:H7, 24 h.
A further experiment has as its system Pseudomonas. Kind of experiment: Antimicrobial activity against Pseudomonas incubated at 37 degC for 24 hrs by broth macrodilution method.
The next experiment deals with Neisseria gonorrhoeae. Kind of experiment: Antimicrobial activity against Neisseria gonorrhoeae incubated at 37 degC for 24 hrs by broth macrodilution method.
A further experiment has as its system Pseudomonas aeruginosa. Kind of experiment: Antimicrobial activity against Pseudomonas aeruginosa incubated at 37 degC for 24 hrs by broth macrodilution method.
A further experiment concerns Campylobacter jejuni. Kind of experiment: Antimicrobial activity against Campylobacter jejuni ATCC 33291 incubated at 37 degC for 24 hrs by broth macrodilution method. Particulars: ATCC 33291, 24 h.
The subject of the next experiment is Streptococcus pneumoniae. Kind of experiment: Antimicrobial activity against Streptococcus pneumoniae incubated at 37 degC for 24 hrs by broth macrodilution method.

In general, MIC refers to the least concentration at which growth counts as inhibited. The low end stands for greater potency, the high end for weaker potency. For the molecule `CO[C@@]1(NC(=O)Cc2cccs2)C(=O)N2C(C(=O)O)=C(COC(N)=O)CS[C@@H]21` [CEFOXITIN], the MIC in the experiment on Klebsiella pneumoniae [1] amounted to 0.25 µg/mL (≈ 0.585 µM); against Klebsiella pneumoniae [2] it was 2 µg/mL (≈ 4.68 µM).
In the case of `Oc1cc(Br)cc(Br)c1Oc1ccc(Br)cc1Br`, the MIC was found to be 1 µg/mL (≈ 1.99 µM) in the experiment on Staphylococcus aureus [3]; 2 µg/mL (≈ 3.99 µM) in the experiment with Listeria monocytogenes; 0.1 µg/mL (≈ 0.199 µM) against Bacillus cereus; 4 µg/mL (≈ 7.97 µM) in the experiment on Clostridioides difficile; 0.1 µg/mL (≈ 0.199 µM) against Staphylococcus aureus [4]; 1 µg/mL (≈ 1.99 µM) against Salmonella sp.. In addition, the MIC in the experiment with Escherichia coli was determined as 8 µg/mL (≈ 15.9 µM); in the experiment with Pseudomonas, 4 µg/mL (≈ 7.97 µM); in the experiment on Klebsiella pneumoniae [1] it was 0.1 µg/mL (≈ 0.199 µM); in the experiment with Neisseria gonorrhoeae, 2 µg/mL (≈ 3.99 µM); with Pseudomonas aeruginosa, 16 µg/mL (≈ 31.9 µM); in the experiment with Campylobacter jejuni, 5 µg/mL (≈ 9.96 µM).
As to `Oc1cc(Br)c(Br)c(Br)c1Oc1ccc(Br)cc1Br`, the minimum inhibitory concentration (MIC) came to 0.1 µg/mL (≈ 0.172 µM) in the experiment with Listeria monocytogenes; 10 µg/mL (≈ 17.2 µM) with Clostridioides difficile; 0.1 µg/mL (≈ 0.172 µM) against Staphylococcus aureus [4]; 10 µg/mL (≈ 17.2 µM) against Salmonella sp.; 5 µg/mL (≈ 8.61 µM) against Campylobacter jejuni.
In the case of `C[C@@H](O)[C@H]1C(=O)N2C(C(=O)O)=C(SCCNC=N)C[C@H]12` [IMIPENEM ANHYDROUS], the minimal inhibitory concentration (MIC) against Klebsiella pneumoniae [1] and in the experiment with Klebsiella pneumoniae [2] was 0.25 µg/mL (≈ 0.835 µM) throughout.
For the molecule `Oc1c(Br)cc(Br)cc1Oc1ccc(Br)cc1Br`, the MIC against Listeria monocytogenes amounted to 1 µg/mL (≈ 1.99 µM); against Bacillus cereus, 5 µg/mL (≈ 9.96 µM); in the experiment on Streptococcus pneumoniae, 5 µg/mL (≈ 9.96 µM); against Clostridioides difficile, 10 µg/mL (≈ 19.9 µM); against Staphylococcus aureus [4], 1 µg/mL (≈ 1.99 µM); against Salmonella sp., 10 µg/mL (≈ 19.9 µM). Also, the minimum inhibitory concentration (MIC) was 10 µg/mL (≈ 19.9 µM) in the experiment with Escherichia coli, 5 µg/mL (≈ 9.96 µM) against Klebsiella pneumoniae [1] and 5 µg/mL (≈ 9.96 µM) with Campylobacter jejuni.
In the case of `O=C(O)c1cn(C2CC2)c2cc(N3CCNCC3)c(F)cc2c1=O` [CIPROFLOXACIN], the MIC against Klebsiella pneumoniae [1] came to 0.125 µg/mL (≈ 0.377 µM); in the experiment on Klebsiella pneumoniae [2], 0.5 µg/mL (≈ 1.51 µM).
